Assay results from patent US10758609B2, “Cross-reactive T-cell epitopes of HIV, SIV, and FIV for vaccines in humans and cats” (priority 2015, dated 2020).

Assays:
[1] = tested on: PBMC from HIV^+ subjects; experiment: IFNγ ELISpot of PBMC from HIV+ human subjects; format: cell-based
Protocol: The overlapping peptide pools of FIV and HIV-1 structural and enzyme proteins were used to stimulate the […] (PBMC) and the T cells from HIV^+ subjects as previously described for epitope mapping of HIV-1 and FIV p24 and reverse transcriptase (RT) (Sanou et al., 2013; Roff et al., 2015). The individual peptides in those peptide pools with positive responses to either interferon-γ (IFNγ) production and/or T-cell proliferation were determined with IFNγ ELISpot analysis and CFSE-based CD3^+CD4^+ and CD3^+CD8^+ T-cell proliferation analyses followed by the FACS-based intracellular staining (ICS) for cytolysin (perforin) and cytotoxin (granzyme A [GrzA] and GrzB) (Sanou et al., 2013; Roff et al., 2015). Besides viral p24 and RT proteins, the identical approach was used to identify anti-HIV/FIV T-cell epitopes on viral matrix (MA), nucleocapsid (NC), protease (PR), RNAase, integrase (IN), surface envelope (SU Env), and transmembrane envelope (TM Env) (FIG. 12).
Since our goal is to develop HIV vaccine for human use, the HIV peptides (Table 10) counterpart of the cross-reactive FIV peptides shown in Table 9 were tested with PBMC and T cells from HIV^+ subjects. The immune functions analyzed were human IFNγ production by ELISpot, cytolysin/cytotoxin production by ICS, and CFSE-based proliferation of CD3^+CD4^+ and CD3^+CD8^+ T cells from HIV^+ subjects (Table 10, the first set of results). In addition, the Los Alamos National Laboratories (LANL) database was used to identify the HLA allele(s) of the HIV epitope sequence with CTL activity that can exist within the sequence of the conserved counterpart HIV peptide (Table 9, LANL CTL). The bold HLA class-I supertypes and the bold 2-digit alleles are those on the “Optimal CD8^+ CTL Epitopes” list and those without bold are alleles for potential CTL epitope. […] The HLA class II such as HLA-DRB1 has yet to be fully classified into supertypes, and therefore the 4-digit resolution nomenclatures for the HLA-DRB1 alleles are shown.
In addition, these peptides were also analyzed for IFNγ production, CD4^+ and CD8^+ T-cell proliferation, and cytolysin (perforin) and cytotoxin (granzyme A (GrzA) and GrzB)) mRNA production of PBMC or T cells from 8-30 HIV^+ human subjects. The frequency of responders is based on the individual responses of the vaccinated cats or HIV^+ human subjects after subtraction of the average of the responses of PBMC or T cells from 6-8 non-vaccinated cats or 8-20 HIV-negative human subjects.
The threshold for positive IFNγ and IL2 ELISpot responses is ≥50 spot-forming units (SFU) per 10^6 PBMC. The threshold for CFSE-based CD4^+ and CD8^+ T-cell proliferation is ≥2% CD4^+ T-cell CFSE^low or CD8^+ T-cell CFSE^low. The threshold of FACS-based intracellular cytokine staining (ICS) is ≥0.2%. […] The nine FIV peptides in black were used in the current MAP vaccine trial, whereas the 13 peptides in blue were not used. […] The MAPs and their corresponding peptide(s) were also tested for their ability to enhance or suppress in vitro FIV infection of feline PBMC (E/S of peptides and E/S of MAP).
The counterpart HIV-1 peptides of the FIV peptides were also tested for immunogenicity using PBMC and T cells from HIV^+ human subjects. […] The HRT7-1 and HRT7-2 were also tested with cells from HIV^+ subjects on ART. The threshold for positive IFNγ ELISpot response is ≥75 spot-forming units (SFU) per 10^6 PBMC. The threshold for CFSE-based CD4^+ (CD4^+ T) and CD8^+ (CD8^+ T) T-cell proliferation is ≥2% CD4^+ T-cell CFSE^low or CD8^+ T-cell CFSE^low. The threshold of intracellular cytokine staining (ICS) of FACS-based cytolysin (perforin) and cytotoxins (granzymes A and B) in CD4^+ T cells (CyCD4) and CD8^+ T cells (CyCD8) is ≥0.2%.

[2] = tested on: PBMC from FIV-vaccinated cats; experiment: Feline IL2 ELISpot of PBMC from vaccinated cats; format: cell-based, cat
Procedure, shortened: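 PBMC from cats given a dual-subtype FIV vaccine were stimulated with FIV MAPs, peptides or overlapping peptide pools, and IFNγ or IL2 spots were counted. Values are duplicate means after subtraction of media controls (or of control-cat averages), with ≥50 SFU per 1×10^6 PBMC as the threshold.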

Sequence	IFNγ, frequency of responders ([1]; FIV epitope peptide)	IFNγ, frequency of responders ([1]; FIV peptides)	IL2, frequency of responders ([2]; FIV epitope peptide)	IL2, frequency of responders ([2]; FIV peptides)
AGLRQSLEQYQVVKQ [FSU4]	— (0%-1.4% (—))	— (0%-1.4%(—))	— (0%-1.4% (—))	— (0%-1.4%(—))
KFLYTAFAMQELR [FTM4-3]	— (0%-1.4% (—))	— (0%-1.4%(—))	++++ (>54% (++++))	++++ (>54% (++++))
KKKSGKWRMLIDFRV [FRT3-3]	++++ (>54% (++++))	++++ (>54% (++++))	++ (26%-40% (++))	++ (25.1%-40% (++))
LLLILCLPTLVDCIRN [FTM8(20)]	— (0%-1.4% (—))	— (0%-1.4%(—))	— (0%-1.4% (—))	— (0%-1.4%(—))
PTDMATLIMAAPGCA [Fp4-3]	— (0%-1.4% (—))	— (0%-1.4%(—))	+ (12.5%-25% (+))	+ (12.5%-25% (+))
WRMLIDFRVLNKL [FRT3-4]	— (0%-1.4% (—))	— (0%-1.4%(—))	++ (26%-40% (++))	++ (25.1%-40% (++))
